Tests used:
[1] = system: mouse Th17 cell differentiation; experiment: Cytokine induced mouse Th17 cell differentiation (IL17a production, FACS); assay type: cell-based; settings: for effect on mouse Th17 cell differentiation / IL-17a in mouse CD4 T cells (in words): IL-6 and TGF-β
Procedure: Cytokine induced mouse Th17 cells differentiation. Effects on mouse endogenous RORγt in a relevant physiological setting were determined by testing compounds in the Th17 cell differentiation assay. […] Th1 or regulatory T cell differentiation was used as a counter-screen method to select specific compounds that only affect Th17 cell differentiation without having pleiotrophic effects on general T cell proliferation or cytokine production.
Naive CD4 T cells were cultured with CD3/CD28 stimulatory antibodies in presence of TGFβ and IL6. Compounds were added on Day 1 and cells were analyzed on Day 4. Numbers shown in Table 3 indicate the percentage of mouse Th17 cells.
CD25^−, CD62L^+, and CD44^int-high cells were sorted from B6 mice.

RORγ/γt [2] = target: T1, RORγ/γt (Mus musculus, UniProt P51450, T352K); experiment: RORγ/γt-luc reporter S2 cell assay / HTS (firefly luciferase); settings: for 80% Inhib. @: RORγ/γt reporter, S2 cells, concentration for 80% inhibition; for RORγ/γt reporter activity (in words): S2 cell reporter; for Curve Class: RORγ/γt HTS concentration response curve class
Excerpt: The Drosophila S2 cell line was originally purchased from Invitrogen and was maintained in Schneider's medium supplemented with 10% heat-inactivated bovine fetal calf serum and antibiotics (Invitrogen). Gal4 DNA binding domain (G4 DBD) corresponding to amino acids 1 through 147 of Gal4 protein was PCR amplified to make a fusion construct with mouse RORγt (amino acids 79 to the carboxyl terminal end) lacking its DNA binding domain. The resulting chimeric gene was subcloned into the copper inducible pMT/V5-His A vector (available from Invitrogen). In a similar manner, Gal4 fusion constructs were prepared with mouse RORα (amino acids 142 to end) or Drosophila DHR3 (amino acids 120 to end).
In order to generate stable cell lines, cells were co-transfected with pMT-G4 DBD-RORγt, pMT-G4 DBD-RORα, pMT-G4 DBD-DHR3, or pMT-G4DBDVP16 and pHygro plasmids (Invitrogen) and screened for resistant colonies in the presence of hygromycin (0.3 mg/mL). More than 150 independent RORγ stable clones with luciferase reporters (pMt-RORγ_luc) were tested for their suitability for the high-throughput screening (HTS) based on the following criteria: high signal-to background ratio in 384- and 1,536-well plates, their high induction rate upon the addition of copper, and RORγ/γt specificity probed by the dsRORγ- or RORγ/γt antagonist-mediated suppression. Positive clones were further transfected with pUAST-firefly luciferase, polIII-Renilla luciferase, and pCoPuro (Iwaki, Figuera et al. 2003) (“Rapid selection of Drosophila S2 cells with the puromycin resistance gene.” Biotechniques 35(3): 482-4, 486.) and selected with puromycin (2.5 ug/ml). […] Using similar methods, stable clones with genomic integration of the luciferase reporters and other reporters were generated such as pMT-RORα_luc, pMT-DHR3_luc, or pMT-VP16_luc.
600 G4 DBD-RORγ/γt-luc reporter (#25) or G4 DBD-VP16-luc reporter cells were distributed into each well of 1,536-well white bottom plates in 4 μl S2 cell culture volume containing hygromicin (300 μg/ml) and puromycin (2 μg/ml). Small compounds in seven different concentrations range from 46 μM to 1.7 nM were pin-transferred (23 nl) by a robot (Inglese et al., 2006, Proc. Natl. Acad. Sci. 103:11473-8). […] After 20-hour incubation at ambient temperature, 1.5 μl firefly luciferase detection mix was added and the luciferase activities were measured in 10 min. ViewLux luminometers were used for measuring luciferase signal.
Since their cognate DNA binding sites were not well characterized, the DNA binding domains (DBD) of RORγ/γt, RORα(mouse homolog for PORγ), and DHR3 (Drosophila orthologue for ROR family proteins) were replaced with the heterologous yeast GAL4 DBD. The transcriptionally active domain of general transcriptional activator VP16 was also fused with GAL4 DBD.

[3] = system: VP16-luc, RORα-luc, and DHR3-luc reporter S2 cell lines; experiment: S2 cell reporter specificity test on other closely related reporters; assay type: cell-based; settings: S2 cell assay
RORγ = target: T2, RORγ (Homo sapiens, UniProt P51449); experiment: RORγ overexpression dependent IL17a production in human CD4 T cells (RORγt-IRES-GFP transduced); assay type: cell-based; settings: human peripheral blood naive CD4+ T cells, transduced day 1, analyzed day 6
T2 construct: expressed in transfected cells; host or cells: human peripheral blood naive CD4+ T cells, virally transduced
T2 sequence (P51449 1-497 isoform P51449-2): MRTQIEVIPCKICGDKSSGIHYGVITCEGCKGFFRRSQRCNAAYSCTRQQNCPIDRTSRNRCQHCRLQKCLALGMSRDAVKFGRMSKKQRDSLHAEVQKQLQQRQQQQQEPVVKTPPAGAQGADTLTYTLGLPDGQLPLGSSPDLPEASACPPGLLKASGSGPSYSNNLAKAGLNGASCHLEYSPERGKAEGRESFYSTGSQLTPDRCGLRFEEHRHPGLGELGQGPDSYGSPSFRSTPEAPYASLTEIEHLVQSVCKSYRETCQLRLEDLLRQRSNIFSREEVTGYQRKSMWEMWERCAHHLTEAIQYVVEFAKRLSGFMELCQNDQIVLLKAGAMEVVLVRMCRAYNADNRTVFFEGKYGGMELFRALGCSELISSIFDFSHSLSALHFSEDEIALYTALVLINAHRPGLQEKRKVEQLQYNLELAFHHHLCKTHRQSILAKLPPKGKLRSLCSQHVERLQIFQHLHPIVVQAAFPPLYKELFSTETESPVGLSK
Procedure: ROR dependent Th17 cell differentiation.
GFP expressing cells were gated for analysis. DMSO or compounds were added 6-8 hours after viral transduction.

RORγ/γt [4] = target: T1, RORγ/γt; experiment: Small-scale screening, G4BD-RORγt stable S2 cells with transient transfection of two luciferase constructs; assay type: cell-based; set-up: expressed in transfected cells
Procedure: Promega Dual-Glo system is widely used for HTS as the luciferase substrates. Cell culture medium was reduced to the final volume of 10 μl or less and 10 μl of Dual-glo and 10 μl of Stop-glo luciferase substrates were added in a sequencial manner (Promega). Firefly and Renilla luciferase activity was determined by measuring luminescence signals using an automated 384-well plate reader equipped with multiple stack units (such as the Analyst GT or Envision plate readers).

[5] = system: human naive cord blood T cells; experiment: Human Th17 cell differentiation, naive cord blood T cells (IL-17a and IFN-γ, flow cytometry); assay type: cell-based; settings: six days, IL2, IL23, ILβ, TGFβ
Excerpt: Human Th17 cell differentiation. Compound effects on human RORγt will be tested by treating human cord blood CD4 T cells with select compounds to determine if such compounds alter differentiation into Th17 lineages.

[6] = 20 μM, DMSO 17% Th17, compound added Day 1, analyzed Day 4
[7] = 5 μM, DMSO 25% Th17, compound added Day 1, analyzed Day 4
[8] = at 10 uM (Table 4, printed in 20 μM column)

T1 sequence (P51450 with tags, fused parts or gaps T352K): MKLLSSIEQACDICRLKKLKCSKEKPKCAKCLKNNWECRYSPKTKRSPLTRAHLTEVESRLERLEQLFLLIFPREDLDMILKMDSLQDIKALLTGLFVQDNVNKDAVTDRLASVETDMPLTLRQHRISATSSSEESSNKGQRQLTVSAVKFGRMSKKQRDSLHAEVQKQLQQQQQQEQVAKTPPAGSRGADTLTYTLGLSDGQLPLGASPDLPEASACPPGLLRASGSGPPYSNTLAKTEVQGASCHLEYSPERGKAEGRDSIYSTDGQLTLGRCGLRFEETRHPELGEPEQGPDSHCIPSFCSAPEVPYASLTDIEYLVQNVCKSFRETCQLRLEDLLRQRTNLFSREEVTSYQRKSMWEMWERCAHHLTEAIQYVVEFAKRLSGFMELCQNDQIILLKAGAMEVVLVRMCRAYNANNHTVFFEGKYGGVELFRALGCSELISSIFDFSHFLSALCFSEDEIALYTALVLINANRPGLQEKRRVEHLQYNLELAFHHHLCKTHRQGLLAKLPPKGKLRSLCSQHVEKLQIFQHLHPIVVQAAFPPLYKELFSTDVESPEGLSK

| SMILES | percentage of mouse Th17 cells (IL17a production) [1, 6] | IC50 (RORγ/γt [2]) | 80% Inhib. @ (RORγ/γt [2]) | percentage of mouse Th17 cells (IL17a production) [1, 7] | also measured |
| --- | --- | --- | --- | --- | --- |
| CCOc1ccc(-c2cc(CCCC(=O)NCc3cccnc3)no2)cc1 [MLS000118457-02] | 10.7% | – | – | – | – |
| O=C(/C=C/c1ccc(S(=O)(=O)N2CCOCC2)cc1)NC(=S)Nc1ccc(N2CCOCC2)cc1 [MLS000402315-02] | 4.8% | 2.61 µM | 7.292 µM | – | – |
| Cc1nn(-c2cc(C)c3ccccc3n2)c2c1C1C(C2)C1(C)C (stereo not drawn) [MLS000526165-02] | 8.3% | – | – | – | – |
| CCOC(=O)c1sc(NC(=O)c2cc3c(s2)CCC(C)C3)nc1C (stereo not drawn) [MLS000566729-02] | 12.1% | 0.134 µM | 0.4389 µM | 16.3% | – |
| CCOC(=O)C1CCN(CC(=O)Nc2cc(C)nn2-c2nc3ccccc3s2)CC1 [MLS000569401-02] | – | – | – | 15% | – |
| O=C(NC(=S)Nc1nc(-c2ccccc2)cs1)c1cccnc1 [MLS000592121-02] | 27.7% | 17.8 µM | 62.17 µM | 27.7% | – |
| COc1ccc(OC)c(NC(=S)N(CCc2c(C)[nH]c3ccccc23)Cc2cccs2)c1 [MLS000696943-02] | 3.1% | 13.4 µM | 35.57 µM | 13.9% | – |
| Cc1cccc(-c2nc3cc(NC(=O)C4CCCO4)ccc3o2)c1 (stereo not drawn) [MLS000700815-02] | 11.9% | – | – | – | – |
| C[C@H]1[C@H](C)CC[C@]2(C(=O)O)CC[C@]3(C)C(=CC[C@@H]4[C@@]5(C)CC[C@H](O)C(C)(C)[C@@H]5CC[C@]43C)[C@H]12 [MLS000728569-02] | dead | – | – | 3.7% | – |
| C=C1NN=C(c2ccccc2Br)N1N=Cc1ccc(N(CC)CC)cc1 [MLS000767819-02] | 10.2% | 2.78 µM | 7.562 µM | – | activity of other closely related reporters (in words) [3]: without having effects; RORγ/γt reporter activity (in words) (RORγ/γt [2]): suppression of RORγ reporter activity |
| O=C(CCCOc1ccccc1)Nc1nc2ccccc2[nH]1 [MLS000772650-02] | 9.9% | 8.67 µM | 12.38 µM | 16.9% | – |
| C=C(NC(=O)c1ccccc1)N1CCN(c2ncc3c(=O)c(C(=O)O)cn(CC)c3n2)CC1 [MLS000777984-02] | 8.9% | – | – | – | effect on mouse Th17 cell differentiation / IL-17a in mouse CD4 T cells (in words) [1]: RORγt specific inhibitory effects |
| Cc1cc(C)n(-c2nc(SCC(=O)O)c3c4c(sc3n2)CCCC4)n1 [MLS000778763-02] | 10.2% | – | – | – | – |
| O=C(CCCN1C(=O)/C(=C/c2ccccc2Cl)SC1=S)Nc1cccnc1 [MLS001034558-02] | dead | 1.6 µM | 8.843 µM | 14.3% | – |
| COc1ccc(C(=O)/C=C/c2ccc(OC)cc2OC)c(O)c1 [MLS001048850-02] | 11.9% | 0.543 µM | 1.646 µM | – | – |
| CCOC(=O)[C@@H]1[C@H]2COc3ccc(Br)cc3[C@@H]2N2C(=O)N(c3ccccc3)C(=O)[C@@]12C [MLS001066232-01] | – | – | – | – | activity of other closely related reporters (in words) [3]: without affecting the activity; RORγ overexpression dependent IL17a production (in words) (RORγ): inhibit; percentage of mouse Th17 cells (IL17a production) [1, 8]: 10.4 (at 10 uM) %; AC50 (RORγ/γt [2]): 10 µM; Curve Class (RORγ/γt [2]): −2.1; RORγ/γt reporter activity (in words) (RORγ/γt [2]): inhibition of RORγ reporter |
| CCOC(=O)[C@@H]1[C@H]2COc3cc(OC)ccc3[C@@H]2N2C(=O)N(c3ccc(C)cc3)C(=O)[C@@]12C [MLS001066267-01] | – | 5 µM | 10 µM | – | RORγ overexpression dependent IL17a production (in words) (RORγ): inhibit; percentage of mouse Th17 cells (IL17a production) [1, 8]: 13.5 (at 10 uM) %; AC50 (RORγ/γt [2]): 5.01 µM; Curve Class (RORγ/γt [2]): −2.1 |
| CC(C)[C@@H](NC(=O)C1CCN(C(=O)[C@@H]2CCCN2C(=O)OC(C)(C)C)CC1)C(=O)NCc1ccc(F)cc1 [MLS001141034-02] | – | 38.7 µM | 161.2 µM | – | – |
| COc1ccccc1CNC(=O)[C@@H](NC(=O)C1CCN(C(=O)[C@@H]2CCCN2C(=O)OC(C)(C)C)CC1)C(C)C [MLS001157801-02] | – | 14.7 µM | 45.85 µM | – | – |
| CN1CCN(C(=O)CCN2C(=O)/C(=C\c3ccccc3F)SC2=S)CC1 [MLS001201644-02] | – | 16.7 µM | 40.36 µM | – | – |
| CC(C)(C)c1ccc(-c2noc(CCC(=O)Nc3cccnc3)n2)cc1 [MLS001217081-02] | 8.3% | – | – | – | – |
| CCOC(=O)[C@@H]1[C@H]2COc3ccc(Br)cc3[C@@H]2N2C(=O)N(c3ccc(C)cc3)C(=O)[C@]12C [MLS0010660292-01] | – | – | – | – | AC50 (RORγ/γt [2]): 11.2 µM; Curve Class (RORγ/γt [2]): 4 |
| CC(=O)[C@@]1(O)CC[C@H]2[C@H]3C[C@@H](C)C4=CC(=O)C=C[C@]4(C)[C@@]3(F)[C@@H](O)C[C@]21C [NCGC00016442-02] | 2.6% | – | – | 4.8% | – |
| Cc1ccc(Sc2cncc3sc(C(N)=O)cc23)cc1 [NCGC00167761-02] | 3.6% | 0.281 µM | 0.7759 µM | 11.6% | – |
| CO[C@H]1[C@@H](O)CC(OC2[C@@H](O)CC(OC3[C@@H](O)C[C@H](OC4CC[C@@]5(C)C(CCC6C5CC(O)[C@]5(C)[C@H](C7=CC(=O)OC7)CCC65O)C4)O[C@@H]3C)O[C@@H]2C)O[C@@H]1C (stereo partly drawn) [NCGC00168746-02] | 1.2% | 1.99 µM | 6.27 µM | 4.5% | – |
| C[C@H]1O[C@@H](O[C@H]2[C@@H](O)C[C@H](O[C@H]3[C@@H](O)C[C@H](O[C@H]4CC[C@@]5(C)[C@H](CC[C@@H]6[C@@H]5CC[C@]5(C)[C@@H](C7=CC(=O)OC7)CC[C@]65O)C4)O[C@@H]3C)O[C@@H]2C)C[C@H](O)[C@@H]1O [digitoxin] | – | – | – | – | RORγ/γt antagonist identification (in words) (RORγ/γt [4]): specific RORγ/γt antagonists |
| CC1OC(OC2C(O)CC(OC3C(O)CC(OC4CCC5(C)C(CCC6C5CC(O)C5(C)C(C7=CC(=O)OC7)CCC65O)C4)OC3C)OC2C)CC(O)C1O (stereo not drawn) [digoxin, reference compound] | – | – | – | – | Th17 (percentage of mouse Th17 cells) ([1]; 10 μM, DMSO 26% (Table 5)): 0.91% |
| C[C@H]1[C@H](C)CC[C@]2(C(=O)O)CC[C@]3(C)C(=CC[C@@H]4[C@@]5(C)CC[C@H](O)C(C)(C)[C@@H]5CC[C@]43C)[C@H]12 [ursolic acid] | – | – | – | – | effect on human CD4 T cell cytokine production (in words) [5]: RORγt specific inhibitory effects; effect on mouse Th17 cell differentiation / IL-17a in mouse CD4 T cells (in words) [1]: RORγt specific inhibitory effects |

— patent publication US9101600B2, “Compounds as RORγt modulators and uses thereof” (New York University, priority 2010, dated 2015)
